Laboratory results as given in patent publication US20110039824A1, “1,2,3,6-tetrahydroazepino[4,5-b]indole-5-carboxylate nuclear receptor inhibitors” (Wyeth, priority 2008, published 2011).

Experiments:
[1] = Pharmacokinetics (bioavailability, half life); format: in vivo
[2] = HLM stability; format: in vitro ADME; settings: human, liver microsomes; read-out: HLM (t1/2)
[3] = system: LDLR KO Mouse Model; experiment: Mouse serum triglyceride (TG) and cholesterol levels in LDLR -/- mice; format: in vivo; settings: daily oral gavage 7 days
Description: Eight-week old LDLR −/−mice were purchased from Jackson Laboratories and maintained on a chow diet. Some LDLR −/−mice were fed a western diet (AlN-76A; Purina Test Diets) as indicated. All mice were treated by daily oral gavage with vehicle or varying concentrations of compound for 7 days. On the last day after the final dose, the food was removed to allow a 3 hr fast and serum was harvested for analysis. Serum TG and cholesterol levels were determined using a Roche 912 clinical chemistry analyzer and expressed as mg/dL.

[4] = system: Caco2; experiment: Caco2 permeability; format: in vitro ADME
[5] = molecular target: CYP450 3A4 (Homo sapiens, UniProt P08684); experiment: CYP450 3A4 inhibition; format: in vitro ADME
[6] = molecular target: CYP450 2C9 (Homo sapiens, UniProt P11712); experiment: CYP450 2C9 inhibition; format: in vitro ADME
[7] = molecular target: hERG (Homo sapiens, UniProt Q12809); experiment: hERG function; settings: values printed as concentrations; read-out: hERG function (% Inh. @ 10 μM)
[8] = molecular target: T1, Progesterone Receptor (PR) (Homo sapiens, UniProt P06401); experiment: Progesterone receptor (PR) antagonism, alkaline phosphatase assay in T47D cells; format: cell-based; settings: percent inhibition @ 10 μM vs 1 nM progesterone
T1 sequence (P06401 679-933 limits assumed): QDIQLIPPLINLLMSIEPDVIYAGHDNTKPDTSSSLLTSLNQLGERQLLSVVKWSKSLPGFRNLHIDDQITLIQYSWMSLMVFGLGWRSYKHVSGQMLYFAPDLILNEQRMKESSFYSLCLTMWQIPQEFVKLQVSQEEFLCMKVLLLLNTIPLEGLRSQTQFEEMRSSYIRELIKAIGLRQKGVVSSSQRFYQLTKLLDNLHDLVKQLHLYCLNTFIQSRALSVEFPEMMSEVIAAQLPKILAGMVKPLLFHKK
Description: DMEM:F12 (1:1) (GIBCO, BRL) supplemented with 5% (v/v) charcoal stripped fetal bovine serum (not heat-inactivated), 100 U/ml penicillin, 100 jig/ml streptomycin, and 2 mM GlutaMax (GIBCO, BRL).
I. 0.1M Tris-HCl, pH 9.8, containing 0.2% Triton X-100 II. 0.1 M Tris-HCl, pH 9.8, containing 4 mM p-nitrophenyl phosphate (Sigma).
Frozen T47D cells were thawed in a 37° C. water bath and diluted to 280,000 cells/ml in culture medium. To each well in a 96-well plate (Falcon, Becton Dickinson Labware), 180 μl of diluted cell suspension was added. Twenty μl of reference or test compounds diluted in the culture medium were then added to each well. When testing for progestin antagonist activity, reference antiprogestins or test compounds were added in the presence of 1 nM progesterone. The cells were incubated at 37° C. in a 5% CO2/humidified atmosphere for 24 hours.
At the end of treatment, the medium was removed from the plate. Fifty μl of assay buffer I was added to each well. The plates were shaken in a titer plate shaker for […]. Then 150 μl of assay buffer II was added to each well. Optical density measurements were taken at 5 min intervals for 30 min at a test wavelength of 405 nm.

[9] = PAMPA permeability; format: in vitro ADME
[10] = molecular target: CYP450 2D6 (Homo sapiens, UniProt P10635); experiment: CYP450 2D6 inhibition; format: in vitro ADME
[11] = Solubility in 2% Tween/0.5% MC aq.; format: physicochemical
[12] = molecular target: T2, Gal4/hFXR fusion protein (Homo sapiens, UniProt Q96RI1); experiment: Gal4/hFXR fusion protein agonist activity in human 293 cells (luciferase); format: cell-based; parameters: rows headed: hFXR agonist EC50; hFXR agonist eff. @ 30 μM; other: efficacy @ 30 μM; settings: efficacy @ 30 μM
T2 sequence (Q96RI1 262-486 limits assumed): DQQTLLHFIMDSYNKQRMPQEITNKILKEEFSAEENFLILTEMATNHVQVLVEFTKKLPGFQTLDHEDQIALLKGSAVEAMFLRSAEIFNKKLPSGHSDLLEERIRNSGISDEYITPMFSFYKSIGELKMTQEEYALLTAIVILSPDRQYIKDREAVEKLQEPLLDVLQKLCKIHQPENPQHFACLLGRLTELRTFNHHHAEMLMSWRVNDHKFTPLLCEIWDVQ
Description: • Assay Medium: Phenol red free high glucose Dulbecco's modified Eagle's medium with sodium pyruvate (Cellgro, #17-205-CV) supplemented with 10% fetal bovine serum (Gibco, 16000-044), 1% glutamax (Gibco, 35050-061), 100 units/mL penicillin and 100 μg/mL streptomycin (Gibco, 15140-122). • Culturplate-96 (PerkinElmer, 6005688) • Lysis buffer (Promega, E3971) • Luciferase assay reagent (Promega E1483)
• 1. Compounds to be tested were prepared as 2× stocks in assay medium. • 2. […] The supernatant was removed and the cells were resuspended in 1 ml assay medium. The cells were counted and diluted in assay medium to 200,000 cells per ml. The cells were then plated at 10,000 cells per well in Culturplate-96 plates in 50 uL assay medium. The cells were incubated at 37° C. for approximately 1 hour. • 3. […] All assays included 1 uM GW4064 (Maloney et al., J. Med. Chem., 2000, 43(16), 2971-2974) as a reference standard. • 4. Cells were incubated for 24 hours at 37° C.
• 5. […] The plates were analyzed for luciferase activity with luciferase assay reagent (Promega E1483). Plates were read on Victor^3V instrument using the protocol “Shuguang Luciferase assay” (dispense volume=100 uL, plate type=“Packard Viewplate”, measurement height=8 mm from bottom of plate, 5 second read per well).
• 1. For agonist single point screening, data were analyzed in Excel. […]

CYP450 2C9, sequence (P11712 whole entry): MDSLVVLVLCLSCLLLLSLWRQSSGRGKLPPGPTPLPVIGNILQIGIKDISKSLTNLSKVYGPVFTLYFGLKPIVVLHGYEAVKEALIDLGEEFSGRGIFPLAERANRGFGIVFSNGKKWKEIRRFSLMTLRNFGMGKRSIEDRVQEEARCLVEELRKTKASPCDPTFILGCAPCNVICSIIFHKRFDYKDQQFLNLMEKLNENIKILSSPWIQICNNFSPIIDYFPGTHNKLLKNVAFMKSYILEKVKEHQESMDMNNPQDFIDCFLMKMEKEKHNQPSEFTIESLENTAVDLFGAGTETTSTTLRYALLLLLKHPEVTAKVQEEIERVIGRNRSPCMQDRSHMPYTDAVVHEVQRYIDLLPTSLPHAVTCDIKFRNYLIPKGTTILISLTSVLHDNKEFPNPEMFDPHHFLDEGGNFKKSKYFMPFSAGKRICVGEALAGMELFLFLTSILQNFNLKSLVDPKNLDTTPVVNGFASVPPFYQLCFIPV
hERG, sequence (Q12809 whole entry): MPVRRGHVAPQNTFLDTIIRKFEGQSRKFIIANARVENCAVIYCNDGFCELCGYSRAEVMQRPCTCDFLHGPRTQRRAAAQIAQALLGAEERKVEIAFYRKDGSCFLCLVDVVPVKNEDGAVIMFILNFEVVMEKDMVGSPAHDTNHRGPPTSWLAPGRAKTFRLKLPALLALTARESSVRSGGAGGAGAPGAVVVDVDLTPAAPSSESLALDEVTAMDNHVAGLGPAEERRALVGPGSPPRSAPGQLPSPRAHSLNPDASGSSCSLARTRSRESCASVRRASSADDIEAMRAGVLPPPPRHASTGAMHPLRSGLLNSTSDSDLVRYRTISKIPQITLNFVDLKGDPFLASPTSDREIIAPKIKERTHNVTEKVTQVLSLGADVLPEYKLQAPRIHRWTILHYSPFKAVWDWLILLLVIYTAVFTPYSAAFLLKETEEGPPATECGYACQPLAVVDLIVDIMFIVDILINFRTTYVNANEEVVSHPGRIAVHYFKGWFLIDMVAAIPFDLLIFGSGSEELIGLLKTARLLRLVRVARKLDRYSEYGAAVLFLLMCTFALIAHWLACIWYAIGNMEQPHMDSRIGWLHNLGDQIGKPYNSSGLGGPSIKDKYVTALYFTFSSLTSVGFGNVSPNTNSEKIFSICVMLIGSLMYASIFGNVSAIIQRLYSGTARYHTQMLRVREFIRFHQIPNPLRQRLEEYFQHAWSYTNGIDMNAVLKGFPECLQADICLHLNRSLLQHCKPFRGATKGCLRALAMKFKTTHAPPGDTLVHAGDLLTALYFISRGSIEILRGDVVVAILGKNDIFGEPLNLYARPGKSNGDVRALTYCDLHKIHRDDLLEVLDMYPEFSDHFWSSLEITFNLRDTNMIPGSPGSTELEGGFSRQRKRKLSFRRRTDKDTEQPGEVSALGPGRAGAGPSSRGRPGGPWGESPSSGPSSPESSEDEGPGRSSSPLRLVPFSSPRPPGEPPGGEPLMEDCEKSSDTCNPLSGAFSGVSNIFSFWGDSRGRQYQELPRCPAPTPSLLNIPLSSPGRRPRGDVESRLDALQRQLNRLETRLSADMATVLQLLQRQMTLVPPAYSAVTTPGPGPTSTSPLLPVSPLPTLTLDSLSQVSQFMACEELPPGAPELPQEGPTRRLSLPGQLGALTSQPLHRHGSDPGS
CYP450 2D6, sequence (P10635 whole entry): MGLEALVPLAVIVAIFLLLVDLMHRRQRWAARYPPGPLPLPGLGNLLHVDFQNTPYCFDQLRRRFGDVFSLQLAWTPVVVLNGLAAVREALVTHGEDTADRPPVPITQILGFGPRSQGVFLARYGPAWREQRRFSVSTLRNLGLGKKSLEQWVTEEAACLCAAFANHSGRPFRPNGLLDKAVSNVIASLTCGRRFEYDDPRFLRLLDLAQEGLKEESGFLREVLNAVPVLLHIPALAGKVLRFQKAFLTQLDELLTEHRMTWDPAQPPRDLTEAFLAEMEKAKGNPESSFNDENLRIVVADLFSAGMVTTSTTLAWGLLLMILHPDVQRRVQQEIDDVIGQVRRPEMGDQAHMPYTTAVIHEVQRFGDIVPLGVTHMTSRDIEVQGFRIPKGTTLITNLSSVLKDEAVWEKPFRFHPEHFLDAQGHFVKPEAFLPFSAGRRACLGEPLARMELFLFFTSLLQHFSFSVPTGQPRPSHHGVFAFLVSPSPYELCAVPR
CYP450 3A4, sequence (P08684 whole entry): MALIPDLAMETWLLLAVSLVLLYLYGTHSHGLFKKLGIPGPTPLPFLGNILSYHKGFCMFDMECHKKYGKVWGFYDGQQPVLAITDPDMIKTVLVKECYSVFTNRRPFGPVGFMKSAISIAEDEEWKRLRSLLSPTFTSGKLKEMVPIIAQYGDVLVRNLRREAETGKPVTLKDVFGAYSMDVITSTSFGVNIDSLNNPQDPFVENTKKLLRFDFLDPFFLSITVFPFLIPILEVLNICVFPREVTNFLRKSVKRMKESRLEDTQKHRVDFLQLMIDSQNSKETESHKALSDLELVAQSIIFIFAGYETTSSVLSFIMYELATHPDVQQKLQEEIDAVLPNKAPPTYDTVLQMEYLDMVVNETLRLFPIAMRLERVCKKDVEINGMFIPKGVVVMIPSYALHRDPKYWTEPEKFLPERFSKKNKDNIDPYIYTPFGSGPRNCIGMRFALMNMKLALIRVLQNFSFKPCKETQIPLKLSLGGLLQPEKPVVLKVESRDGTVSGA

## CC(C)OC(=O)C1=CN(C(=O)c2ccc(F)c(F)c2)CC(C)(C)c2c1[nH]c1ccccc21 [Reference Compound 2, isopropyl-3-(3,4-difluorobenzoyl)-1,1-dimethyl-1,2,3,6-tetrahydroazepino[4,5-b]indole-5-carboxylate]
[1]
  Bioavailability (dosed in aqueous MC/Tween): poor
[2]
  half-life: 18 min
[3]; female
  Reduction of Total Cholesterol in a LDLR KO Mouse Model (Female) @ 10 mpk: 36%
  Reduction of Triglycerides in a LDLR KO Mouse Model (Female) @ 10 mpk: 39%
[3]; male
  Reduction of Total Cholesterol in a LDLR KO Mouse Model (Male) @ 10 mpk: 47%
  Reduction of Triglycerides in a LDLR KO Mouse Model (Male) @ 10 mpk: 71%
[4]
  Transport mechanism: passive
[4]; A-B
  Caco2 Permeability (Pe × 10^−6) A-B: 0.5 × 10^−6
[4]; B-A
  Caco2 Permeability (Pe × 10^−6) B-A: 0.5 × 10^−6
[4]; class in words
  Caco2 Permeability, class: Low
[5]
  CYP450 3A4 % I @ 3 μM: 43%
[6]
  CYP450 2C9 % I @ 3 μM: 24%
[7]
  IC50: > 10 µM
[8]
  PR Antagonism (Alk. Phos. Assay @ 10 μM): 44% @ 10 μM
[9]
  PAMPA Permeability (Pe × 10^−6): 0 × 10^−6
[10]
  CYP450 2D6 % I @ 3 μM: 5%
[11]
  2% Tween/0.5% MC aq. sol. (mg/mL): 0.01 mg/mL
  2% Tween/0.5% MC aq. sol. (μM): 22.0 µM
[12]
  hFXR agonist eff. @ 30 μM: 179%
